Data published in ChEMBL document CHEMBL4049384, “Synthesis and evaluation of an injectable everolimus prodrug” (Bioorg Med Chem Lett, 2017).

How the values were obtained:
Blood [1] = assay: Prodrug conversion in Sprague-Dawley rat blood assessed as everolimus level at 2.724 mg/kg, iv at 3 hrs post dose by HPLC method; assay type: ADME, organism-based; settings: in vivo
Mus musculus [2] = assay: Toxicity in nude mouse xenografted with human OS-RC-2 cells assessed as body weight loss at 24 mg/kg, iv administered once weekly measured on day 5 (reference value: 1.9%); assay type: organism-based; settings: in vivo
Mus musculus [3] = assay: Toxicity in nude mouse xenografted with human OS-RC2 cells assessed as body weight loss at 1.5 mg/kg, iv administered three times a week measured on Day 15 (reference value: 20.2 %); assay type: organism-based; settings: in vivo
[4] = AUC (0 to infinity) in Sprague-Dawley rat at 2.724 mg/kg, iv; assay type: ADME, organism-based; design: dose 2.724 mg/kg, route intravenous, time infinity; settings: in vivo
OS-RC-2 [5] = assay: Antitumor activity against human OS-RC2 cells xenografted in nude mouse assessed as tumor weight at 24 mg/kg, iv administered once weekly measured after 32 days (reference value: 0.68 +/- 0.06 g); assay type: functional
OS-RC-2 [6] = assay: Antitumor activity against human OS-RC2 cells xenografted in nude mouse assessed as reduction in tumor volume at 1.5 mg/kg, iv administered three times a week measured on day 29 relative to control; assay type: functional
Blood [7] = assay: Prodrug conversion in Sprague-Dawley rat blood assessed as everolimus formation at 2 mg/kg, iv after 2 hrs by HPLC analysis; assay type: ADME, organism-based; settings: in vivo
Blood [8] = assay: Prodrug conversion in Sprague-Dawley rat blood assessed as everolimus level at 2.724 mg/kg, iv at 2 hrs post dose by HPLC method; assay type: ADME, organism-based; settings: in vivo
HepG2 = assay: Antiproliferative activity against human HepG2 cells after 48 hrs by MTT assay; assay type: functional, cell-based; settings: HepG2, 48 h
Blood [9] = assay: Prodrug conversion in Sprague-Dawley rat blood assessed as everolimus level at 2.724 mg/kg, iv at 6 hrs post dose by HPLC method; assay type: ADME, organism-based; settings: in vivo
Blood [10] = assay: Prodrug conversion in Sprague-Dawley rat blood assessed as everolimus level at 2.724 mg/kg, iv at 24 hrs post dose by HPLC method; assay type: ADME, organism-based; settings: in vivo
Mus musculus [11] = assay: Toxicity in nude mouse xenografted with human OS-RC2 cells assessed as body weight loss at 24 mg/kg, iv administered once weekly measured on day 26 (reference value: 28.2 %); assay type: organism-based; settings: in vivo
OS-RC-2 [12] = assay: Antitumor activity against human OS-RC2 cells xenografted in nude mouse assessed as reduction in tumor volume at 24 mg/kg, iv administered once weekly measured on day 5 relative to control; assay type: functional
OS-RC-2 [13] = assay: Antitumor activity against human OS-RC2 cells xenografted in nude mouse assessed as reduction in tumor volume at 24 mg/kg, iv administered once weekly measured on day 29 relative to control; assay type: functional
OS-RC-2 [14] = assay: Antitumor activity against human OS-RC2 cells xenografted in nude mouse assessed as tumor weight at 1.5 mg/kg, iv administered three times a week measured after 32 days (reference value: 0.68 +/- 0.06 g); assay type: functional
OS-RC-2 [15] = assay: Antitumor activity against human OS-RC2 cells xenografted in nude mouse assessed as reduction in tumor volume at 24 mg/kg, iv administered once weekly measured on day 22 relative to control; assay type: functional
[16] = Cmax in Sprague-Dawley rat at 2.724 mg/kg, iv; assay type: ADME, organism-based; design: dose 2.724 mg/kg, route intravenous; settings: in vivo
Mus musculus [17] = assay: Toxicity in nude mouse xenografted with human OS-RC-2 cells assessed as body weight loss at 24 mg/kg, iv administered once weekly measured after 32 days (reference value: 33%); assay type: organism-based; settings: in vivo, 768 h
OS-RC-2 [18] = assay: Antitumor activity against human OS-RC2 cells xenografted in nude mouse assessed as tumor volume at 24 mg/kg, iv administered once weekly and measured on day 1 (reference value: 167.51 +/- 17.09 mm3); assay type: functional
OS-RC-2 [19] = assay: Antitumor activity against human OS-RC2 cells xenografted in nude mouse assessed as reduction in tumor volume at 1.5 mg/kg, iv administered three times a week measured on day 5 relative to control; assay type: functional
OS-RC-2 [20] = assay: Antitumor activity against human OS-RC2 cells xenografted in nude mouse assessed as tumor growth inhibition at 1.5 mg/kg, iv administered three times a week measured after 32 days relative to control; assay type: functional; settings: OS-RC-2, iv, 768 h, read-out: TGI
Mus musculus [21] = assay: Toxicity in nude mouse xenografted with human OS-RC2 cells assessed as body weight loss at 1.5 mg/kg administered three times a week intravenously and measured on Day 8 (reference value: 8.5 %); assay type: organism-based; settings: in vivo, iv
Mus musculus [22] = assay: Toxicity in nude mouse xenografted with human OS-RC2 cells assessed as body weight loss at 1.5 mg/kg administered three times a week intravenously and measured on Day 5 (reference value: 1.9 %); assay type: organism-based; settings: in vivo, iv
OS-RC-2 [23] = assay: Antitumor activity against human OS-RC2 cells xenografted in nude mouse assessed as reduction in tumor volume at 1.5 mg/kg, iv administered three times a week measured on day 12 relative to control; assay type: functional
OS-RC-2 [24] = assay: Antitumor activity against human OS-RC2 cells xenografted in nude mouse assessed as reduction in tumor volume at 1.5 mg/kg, iv administered three times a week measured on day 22 relative to control; assay type: functional
OS-RC-2 [25] = assay: Antitumor activity against human OS-RC2 cells xenografted in nude mouse assessed as reduction in tumor volume at 24 mg/kg, iv administered once weekly measured on day 15 relative to control; assay type: functional
[26] = Half life in Sprague-Dawley rat at 2.724 mg/kg, iv; assay type: ADME, organism-based; settings: in vivo
Mus musculus [27] = assay: Toxicity in nude mouse xenografted with human OS-RC2 cells assessed as body weight loss at 24 mg/kg, iv administered once weekly measured on day 15 (reference value: 20.2 %); assay type: organism-based; settings: in vivo
Blood [28] = assay: Prodrug conversion in Sprague-Dawley rat blood assessed as everolimus level at 2.724 mg/kg, iv at 1.5 hrs post dose by HPLC method; assay type: ADME, organism-based; settings: in vivo
Mus musculus [29] = assay: Toxicity in nude mouse xenografted with human OS-RC-2 cells assessed as body weight loss at 1.5 mg/kg, iv administered three times a week measured after 32 days (reference value: 33%); assay type: organism-based; settings: in vivo, 768 h
Blood [30] = assay: Prodrug conversion in Sprague-Dawley rat blood assessed as everolimus level at 2.724 mg/kg, iv at 8 hrs post dose by HPLC method; assay type: ADME, organism-based; settings: in vivo
Mus musculus [31] = assay: Toxicity in nude mouse xenografted with human OS-RC-2 cells assessed as body weight at 1.5 mg/kg, iv administered three times a week measured on day 1 (reference value: 20.4 +/- 0.33 g); assay type: organism-based; settings: in vivo
OS-RC-2 [32] = assay: Antitumor activity against human OS-RC2 cells xenografted in nude mouse assessed as reduction in tumor volume at 24 mg/kg, iv administered once weekly measured on day 19 relative to control; assay type: functional
MDA-MB-435 = assay: Antiproliferative activity against human MDA-MB-435 cells after 48 hrs by MTT assay; assay type: functional, cell-based; settings: MDA-MB-435, 48 h
Blood [33] = assay: Prodrug conversion in Sprague-Dawley rat blood assessed as everolimus level at 2.724 mg/kg, iv at 4 hrs post dose by HPLC method; assay type: ADME, organism-based; settings: in vivo
Mus musculus [34] = assay: Toxicity in nude mouse xenografted with human OS-RC2 cells assessed as body weight loss at 24 mg/kg, iv administered once weekly measured on day 19 (reference value: 23.1 %); assay type: organism-based; settings: in vivo
OS-RC-2 [35] = assay: Antitumor activity against human OS-RC2 cells xenografted in nude mouse assessed as reduction in tumor volume at 1.5 mg/kg, iv administered three times a week measured on day 32 relative to control; assay type: functional

SMILES: CO[C@H]1C[C@@H]2CC[C@@H](C)[C@@](O)(O2)C(=O)C(=O)N2CCCC[C@H]2C(=O)O[C@H]([C@H](C)C[C@@H]2CC[C@@H](OCCOC(=O)CSC[C@H](NC(=O)CC[C@H](N)C(=O)O)C(=O)NCC(=O)O)[C@H](OC)C2)CC(=O)[C@H](C)/C=C(\C)[C@@H](O)[C@@H](OC)C(=O)[C@H](C)C[C@H](C)\C=C/C=C/C=C/1C
- Drug metabolism (Blood [1]): 16.9443 ng/mL
- Activity (Mus musculus [2]): 6.2%
- Activity (Mus musculus [3]): 12%
- AUC(0-inf) [4]: 2510 ng·h/mL
- Activity (OS-RC-2 [5]): 0.26 g
- T/C (OS-RC-2 [6]): 0.54%
- Drug metabolism (Blood [7]): Metabolite_Detected
- Drug metabolism (Blood [8]): 28.155 ng/mL
- IC50 (HepG2): 11.1 µM
- Drug metabolism (Blood [9]): 8.113 ng/mL
- Drug metabolism (Blood [10]): 2.3295 ng/mL
- Activity (Mus musculus [11]): 10.2%
- T/C (OS-RC-2 [12]): 0.55%
- T/C (OS-RC-2 [13]): 0.54%
- Activity (OS-RC-2 [14]): 0.29 g
- T/C (OS-RC-2 [15]): 0.55%
- Cmax [16]: 8420 ng/mL
- Activity (Mus musculus [17]): 10.7%
- Activity (OS-RC-2 [18]): 167.06 mm3
- T/C (OS-RC-2 [19]): 0.72%
- inhibition in vivo at 1.5 mg/kg (OS-RC-2 [20]): 57.1%
- Activity (Mus musculus [21]): 9.2%
- Activity (Mus musculus [22]): 6.8%
- T/C (OS-RC-2 [23]): 0.6%
- T/C (OS-RC-2 [24]): 0.56%
- T/C (OS-RC-2 [25]): 0.41%
- half-life [26]: 2.3 h
- Activity (Mus musculus [27]): 8.9%
- Drug metabolism (Blood [28]): 40.4142 ng/mL
- Activity (Mus musculus [29]): 12.3%
- Drug metabolism (Blood [30]): 6.8915 ng/mL
- Activity (Mus musculus [31]): 20.67 g
- T/C (OS-RC-2 [32]): 0.49%
- IC50 (MDA-MB-435): 55.3 µM
- Drug metabolism (Blood [33]): 13.8243 ng/mL
- Activity (Mus musculus [34]): 10.2%
- T/C (OS-RC-2 [35]): 0.52%
